Results taken from PubChem BioAssay (NCI).
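Method: 48-hour compound exposure of cells in 96-well plates, five concentrations, linear interpolation of endpoints. GI50 = concentration required for 50% inhibition of growth. At the TGI there is no net growth.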

How the values were obtained:
Test in all cases: DTP human tumour cell line panel, 48 h
SK-MEL-28 melanoma = tested on: SK-MEL-28 melanoma
A498 renal = tested on: A498 renal
SF-295 CNS = tested on: SF-295 CNS
IGROV1 ovarian = tested on: IGROV1 ovarian
OVCAR-3 ovarian = tested on: OVCAR-3 ovarian
SF-268 CNS = tested on: SF-268 CNS
HT29 colon = tested on: HT29 colon
LOX IMVI melanoma = tested on: LOX IMVI melanoma
MALME-3M melanoma = tested on: MALME-3M melanoma
NCI-H226 lung = tested on: NCI-H226 lung
NCI/ADR-RES ovarian = tested on: NCI/ADR-RES ovarian
NCI-H460 lung = tested on: NCI-H460 lung
SW-620 colon = tested on: SW-620 colon
MDA-MB-435 = tested on: MDA-MB-435
CCRF-CEM leukemia = tested on: CCRF-CEM leukemia
RPMI-8226 leukemia = tested on: RPMI-8226 leukemia
SNB-75 CNS = tested on: SNB-75 CNS
HCT-15 colon = tested on: HCT-15 colon
OVCAR-8 ovarian = tested on: OVCAR-8 ovarian
OVCAR-4 ovarian = tested on: OVCAR-4 ovarian
NCI-H23 lung = tested on: NCI-H23 lung
HL-60(TB) leukemia = tested on: HL-60(TB) leukemia
BT-549 breast = tested on: BT-549 breast
HCC-2998 colon = tested on: HCC-2998 colon
SN12C renal = tested on: SN12C renal
KM12 colon = tested on: KM12 colon
SF-539 CNS = tested on: SF-539 CNS
SK-MEL-2 melanoma = tested on: SK-MEL-2 melanoma
MDA-MB-231 breast = tested on: MDA-MB-231 breast
TK-10 renal = tested on: TK-10 renal
HOP-92 NSCLC = tested on: HOP-92 NSCLC
K-562 leukemia = tested on: K-562 leukemia
OVCAR-5 ovarian = tested on: OVCAR-5 ovarian
MOLT-4 leukemia = tested on: MOLT-4 leukemia
NCI-H522 lung = tested on: NCI-H522 lung
A549 NSCLC = tested on: A549 NSCLC
PC-3 prostate = tested on: PC-3 prostate
ACHN renal = tested on: ACHN renal
HCT-116 colon = tested on: HCT-116 colon
COLO 205 colon = tested on: COLO 205 colon
SR leukemia = tested on: SR leukemia
HS 578T breast = tested on: HS 578T breast
UACC-62 melanoma = tested on: UACC-62 melanoma
UO-31 renal = tested on: UO-31 renal
MDA-MB-468 breast = tested on: MDA-MB-468 breast
U251 CNS = tested on: U251 CNS
RXF 393 renal = tested on: RXF 393 renal
M14 melanoma = tested on: M14 melanoma
SK-MEL-5 melanoma = tested on: SK-MEL-5 melanoma
SNB-19 CNS = tested on: SNB-19 CNS
786-0 renal = tested on: 786-0 renal
MCF7 breast = tested on: MCF7 breast
HOP-62 NSCLC = tested on: HOP-62 NSCLC
CAKI-1 renal = tested on: CAKI-1 renal
EKVX NSCLC = tested on: EKVX NSCLC
DU-145 prostate = tested on: DU-145 prostate
SK-OV-3 ovarian = tested on: SK-OV-3 ovarian
UACC-257 melanoma = tested on: UACC-257 melanoma

COc1ccc2[nH]c(O)c(N=Nc3nc(-c4ccc(Br)cc4)cs3)c2c1
GI50 (SK-MEL-28 melanoma): 2.01 µM
TGI (SK-MEL-28 melanoma): 4.19 µM
GI50 (A498 renal): 2.38 µM
TGI (A498 renal): 6.5 µM
GI50 (SF-295 CNS): 11.3 µM
TGI (SF-295 CNS): 39.3 µM
GI50 (IGROV1 ovarian): 5.41 µM
TGI (IGROV1 ovarian): > 100 µM
GI50 (OVCAR-3 ovarian): 2.91 µM
TGI (OVCAR-3 ovarian): 10.4 µM
GI50 (SF-268 CNS): 6.49 µM
TGI (SF-268 CNS): 36.6 µM
GI50 (HT29 colon): 7.18 µM
TGI (HT29 colon): > 100 µM
GI50 (LOX IMVI melanoma): 3.77 µM
TGI (LOX IMVI melanoma): 12.5 µM
GI50 (MALME-3M melanoma): 1.69 µM
TGI (MALME-3M melanoma): 3.2 µM
GI50 (NCI-H226 lung): 4.44 µM
TGI (NCI-H226 lung): 19.5 µM
GI50 (NCI/ADR-RES ovarian): 2.1 µM
TGI (NCI/ADR-RES ovarian): 4.58 µM
GI50 (NCI-H460 lung): 2.48 µM
TGI (NCI-H460 lung): 6.14 µM
GI50 (SW-620 colon): 3.06 µM
TGI (SW-620 colon): > 100 µM
GI50 (MDA-MB-435): 6.64 µM
TGI (MDA-MB-435): > 100 µM
GI50 (CCRF-CEM leukemia): 6.56 µM
TGI (CCRF-CEM leukemia): > 100 µM
GI50 (RPMI-8226 leukemia): 3.62 µM
TGI (RPMI-8226 leukemia): > 100 µM
GI50 (SNB-75 CNS): 3 µM
TGI (SNB-75 CNS): 21.3 µM
GI50 (HCT-15 colon): 4.43 µM
TGI (HCT-15 colon): 30.6 µM
GI50 (OVCAR-8 ovarian): 3.07 µM
TGI (OVCAR-8 ovarian): 9.52 µM
GI50 (OVCAR-4 ovarian): 1.73 µM
TGI (OVCAR-4 ovarian): 3.23 µM
GI50 (NCI-H23 lung): 3.51 µM
TGI (NCI-H23 lung): 14.2 µM
GI50 (HL-60(TB) leukemia): 87.8 µM
TGI (HL-60(TB) leukemia): > 100 µM
GI50 (BT-549 breast): 7.26 µM
TGI (BT-549 breast): 36.6 µM
GI50 (HCC-2998 colon): 4.25 µM
TGI (HCC-2998 colon): > 100 µM
GI50 (SN12C renal): 3.16 µM
TGI (SN12C renal): 11.1 µM
GI50 (KM12 colon): 6.23 µM
TGI (KM12 colon): > 100 µM
GI50 (SF-539 CNS): 1.92 µM
TGI (SF-539 CNS): 3.95 µM
GI50 (SK-MEL-2 melanoma): 2.6 µM
TGI (SK-MEL-2 melanoma): 8.11 µM
GI50 (MDA-MB-231 breast): 5.35 µM
TGI (MDA-MB-231 breast): 20.7 µM
GI50 (TK-10 renal): 14.7 µM
TGI (TK-10 renal): 89.9 µM
GI50 (HOP-92 NSCLC): 1.96 µM
TGI (HOP-92 NSCLC): 5.21 µM
GI50 (K-562 leukemia): 4.35 µM
TGI (K-562 leukemia): > 100 µM
GI50 (OVCAR-5 ovarian): 5.77 µM
TGI (OVCAR-5 ovarian): 33.8 µM
GI50 (MOLT-4 leukemia): 3.33 µM
TGI (MOLT-4 leukemia): > 100 µM
GI50 (NCI-H522 lung): 2.5 µM
TGI (NCI-H522 lung): 39 µM
GI50 (A549 NSCLC): 3.07 µM
TGI (A549 NSCLC): 12.9 µM
GI50 (PC-3 prostate): 5.22 µM
TGI (PC-3 prostate): 60.1 µM
GI50 (ACHN renal): 3.18 µM
TGI (ACHN renal): 10.1 µM
GI50 (HCT-116 colon): 2.35 µM
TGI (HCT-116 colon): 5.72 µM
GI50 (COLO 205 colon): 5.6 µM
TGI (COLO 205 colon): > 100 µM
GI50 (SR leukemia): 4.73 µM
TGI (SR leukemia): > 100 µM
GI50 (HS 578T breast): 7.34 µM
TGI (HS 578T breast): > 100 µM
GI50 (UACC-62 melanoma): 2.97 µM
TGI (UACC-62 melanoma): > 100 µM
GI50 (UO-31 renal): 9.13 µM
TGI (UO-31 renal): 28.2 µM
GI50 (MDA-MB-468 breast): 2.17 µM
TGI (MDA-MB-468 breast): 5.81 µM
GI50 (U251 CNS): 2.96 µM
TGI (U251 CNS): 9.25 µM
GI50 (RXF 393 renal): 2.29 µM
TGI (RXF 393 renal): 5.07 µM
GI50 (M14 melanoma): 2.81 µM
TGI (M14 melanoma): 10.3 µM
GI50 (SK-MEL-5 melanoma): 4.72 µM
TGI (SK-MEL-5 melanoma): 30.9 µM
GI50 (SNB-19 CNS): 8.01 µM
TGI (SNB-19 CNS): 52.4 µM
GI50 (786-0 renal): 1.65 µM
TGI (786-0 renal): 3.22 µM
GI50 (MCF7 breast): 2.98 µM
TGI (MCF7 breast): 79.8 µM
GI50 (HOP-62 NSCLC): 6.51 µM
TGI (HOP-62 NSCLC): 36 µM
GI50 (CAKI-1 renal): 5.1 µM
TGI (CAKI-1 renal): 32.7 µM
GI50 (EKVX NSCLC): 3.63 µM
TGI (EKVX NSCLC): 27.9 µM
GI50 (DU-145 prostate): 4.54 µM
TGI (DU-145 prostate): 32.6 µM
GI50 (SK-OV-3 ovarian): 6.16 µM
TGI (SK-OV-3 ovarian): 50.3 µM
GI50 (UACC-257 melanoma): 8.64 µM
TGI (UACC-257 melanoma): > 100 µM
